Measured values taken from PubChem BioAssay AID1963961 (Molecular Pharmacology Branch, DTP, NCI, 2024).

Tested on: K98450-129-R-PDC multicell spheroids, viability
Experiment: Anticancer human tumor K98450-129-R-PDC patient-derived colon adenocarcinoma cell line growth inhibition [PI3K]
Conditions: for IC50: curve of first compound; for viability, T/C: stronger effect = lower value
Method in brief: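 Stroma-containing spheroids: tumor line, pooled-donor HUVEC, hMSC. Treatments: targeted agents with PI3K inhibitors. Dosing: clinically relevant, half-log spacing, 10 microM ceiling without known Cmax. Read-out: cell viability.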

[1] = second compound 0.0316 µM, first compound 0.0316 µM
[2] = second compound 0.0316 µM, first compound 0.1 µM
[3] = second compound 0.0316 µM, first compound 0.316 µM
[4] = second compound 0.0316 µM, first compound 1 µM
[5] = second compound 0.1 µM, first compound 0.0316 µM
[6] = second compound 0.1 µM, first compound 0.1 µM
[7] = second compound 0.1 µM, first compound 0.316 µM
[8] = second compound 0.1 µM, first compound 1 µM
[9] = second compound 0.316 µM, first compound 0.0316 µM
[10] = second compound 0.316 µM, first compound 0.1 µM
[11] = second compound 0.316 µM, first compound 0.316 µM
[12] = second compound 0.316 µM, first compound 1 µM
[13] = second compound 1 µM, first compound 0.0316 µM
[14] = second compound 1 µM, first compound 0.1 µM
[15] = second compound 1 µM, first compound 0.316 µM
[16] = second compound 1 µM, first compound 1 µM
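Note: spheroids exposed to agents for seven days before read-out.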

With `CCN1CCN(Cc2ccc(Nc3ncc(F)c(-c4cc(F)c5nc(C)n(C(C)C)c5c4)n3)nc2)CC1` + COc1c(OCCCN2CCOCC2)ccc2c3n(c(=NC(=O)c4cnc(N)nc4)nc12)CCN3 the IC50 (second compound 0.00316 µM) was > 1 µM, the IC50 (second compound 0.01 µM) was > 1 µM and the IC50 (second compound 0.0316 µM) was > 1 µM. For the same compound, the IC50 (second compound 0.1 µM) was > 1 µM, the IC50 (second compound 0.316 µM) was > 1 µM and the IC50 (second compound 1 µM) was < 0.00316 µM. For the same compound, the viability, T/C (second compound 0.00316 µM, first compound 0.00316 µM) was 99.6%, the viability, T/C (second compound 0.00316 µM, first compound 0.01 µM) was 108% and the viability, T/C (second compound 0.00316 µM, first compound 0.0316 µM) was 88.9%. It also gave a viability, T/C (second compound 0.00316 µM, first compound 0.1 µM) of 86.9%, a viability, T/C (second compound 0.00316 µM, first compound 0.316 µM) of 87.5% and a viability, T/C (second compound 0.00316 µM, first compound 1 µM) of 79.4%. It also gave a viability, T/C (second compound 0.01 µM, first compound 0.00316 µM) of 117%, a viability, T/C (second compound 0.01 µM, first compound 0.01 µM) of 93.7% and a viability, T/C (second compound 0.01 µM, first compound 0.0316 µM) of 81.6%. The viability, T/C (second compound 0.01 µM, first compound 0.1 µM) was 94%, the viability, T/C (second compound 0.01 µM, first compound 0.316 µM) was 71.1% and the viability, T/C (second compound 0.01 µM, first compound 1 µM) was 75.8%. For the same compound, the viability, T/C (second compound 0.0316 µM, first compound 0.00316 µM) was 78.3%, the viability, T/C (second compound 0.0316 µM, first compound 0.01 µM) was 64.5% and the viability, T/C [1] was 81.9%. It also gave a viability, T/C [2] of 66.8%, a viability, T/C [3] of 72.8% and a viability, T/C [4] of 110%. For the same compound, the viability, T/C (second compound 0.1 µM, first compound 0.00316 µM) was 71.6%, the viability, T/C (second compound 0.1 µM, first compound 0.01 µM) was 64.9% and the viability, T/C [5] was 85.6%. It also gave a viability, T/C [6] of 57.3%, a viability, T/C [7] of 64.2% and a viability, T/C [8] of 70.7%. The viability, T/C (second compound 0.316 µM, first compound 0.00316 µM) was 53.1%, the viability, T/C (second compound 0.316 µM, first compound 0.01 µM) was 64.6% and the viability, T/C [9] was 57.3%. For the same compound, the viability, T/C [10] was 46.2%, the viability, T/C [11] was 64.7% and the viability, T/C [12] was 60%. For the same compound, the viability, T/C (second compound 1 µM, first compound 0.00316 µM) was 56%, the viability, T/C (second compound 1 µM, first compound 0.01 µM) was 45% and the viability, T/C [13] was 45.8%. The viability, T/C [14] was 47.8%, the viability, T/C [15] was 59.8% and the viability, T/C [16] was 65.2%.
In the case of `Cn1nccc1Nc1nccc(-c2ccn(C(CO)c3ccc(Cl)c(F)c3)c(=O)c2)n1` (centres undefined) + Cc1nc(NC(=O)N2CCCC2C(N)=O)sc1-c1ccnc(C(C)(C)C(F)(F)F)c1, the IC50 (second compound 0.0316 µM) is reported as > 10 µM, the IC50 (second compound 0.1 µM) is reported as > 10 µM and the IC50 (second compound 0.316 µM) is reported as > 10 µM. For the same compound, the IC50 (second compound 1 µM) was > 10 µM, the IC50 (second compound 3.16 µM) was > 10 µM and the IC50 (second compound 10 µM) was > 10 µM. The viability, T/C [1] was 107%, the viability, T/C [2] was 97.7% and the viability, T/C [3] was 103%. The viability, T/C [4] was 109%, the viability, T/C (second compound 0.0316 µM, first compound 3.16 µM) was 97.2% and the viability, T/C (second compound 0.0316 µM, first compound 10 µM) was 89.2%. The viability, T/C [5] was 114%, the viability, T/C [6] was 104% and the viability, T/C [7] was 100%. The viability, T/C [8] was 92.6%, the viability, T/C (second compound 0.1 µM, first compound 3.16 µM) was 96.7% and the viability, T/C (second compound 0.1 µM, first compound 10 µM) was 97.8%. The viability, T/C [9] was 104%, the viability, T/C [10] was 103% and the viability, T/C [11] was 94.1%. The viability, T/C [12] was 98.6%, the viability, T/C (second compound 0.316 µM, first compound 3.16 µM) was 98.5% and the viability, T/C (second compound 0.316 µM, first compound 10 µM) was 83.3%. It also gave a viability, T/C [13] of 91.6%, a viability, T/C [14] of 95.2% and a viability, T/C [15] of 93.5%. For the same compound, the viability, T/C [16] was 84.9%, the viability, T/C (second compound 1 µM, first compound 3.16 µM) was 98.6% and the viability, T/C (second compound 1 µM, first compound 10 µM) was 80.8%. The viability, T/C (second compound 3.16 µM, first compound 0.0316 µM) was 78.9%, the viability, T/C (second compound 3.16 µM, first compound 0.1 µM) was 86.1% and the viability, T/C (second compound 3.16 µM, first compound 0.316 µM) was 87%. For the same compound, the viability, T/C (second compound 3.16 µM, first compound 1 µM) was 77.9%, the viability, T/C (second compound 3.16 µM, first compound 3.16 µM) was 85.4% and the viability, T/C (second compound 3.16 µM, first compound 10 µM) was 64.7%. The viability, T/C (second compound 10 µM, first compound 0.0316 µM) was 71%, the viability, T/C (second compound 10 µM, first compound 0.1 µM) was 70.7% and the viability, T/C (second compound 10 µM, first compound 0.316 µM) was 72.2%. For the same compound, the viability, T/C (second compound 10 µM, first compound 1 µM) was 75%, the viability, T/C (second compound 10 µM, first compound 3.16 µM) was 77.8% and the viability, T/C (second compound 10 µM, first compound 10 µM) was 50.9%.
